Measurements from US12390470B2, “1-methylxanthine-based bioactive composition and method of use thereof” (Ingenious Ingredients, LP, priority 2021, dated 2025).
Where two headings read alike, the source gives them in different places.

Legend:
[1] = system: kidneys of Wistar rats; settings: cited from earlier work
[2] = system: participants; assay: Respiratory quotient, placebo-controlled crossover; format: in vivo, human
Experimental: All supplements were orally ingested with 8 fluid ounces of cold tap water. The order of administration for all interventions was randomized using a random allocation software to ensure randomization and to avoid order effects. After ingestion, participants completed all assessments in an identical fashion 30, 60, 90, 120, and 180 minutes after ingestion of their assigned supplement. All study visits took place between 0600-1000 hours. At least 72 hours of rest will take place between each condition.
The lower the RQ, the more fat that is being oxidized for body energy needs. The closer to 1.0 the more carbohydrate is being burned for energy needs. If numbers are lower more fat is being oxidized.

[3] = system: participants; assay: Resting heart rate, crossover vs caffeine; format: in vivo, human
Description: (§1) All supplements were orally ingested with 8 fluid ounces of cold tap water.

[4] = system: participants; assay: Systolic blood pressure, crossover vs caffeine; format: in vivo, human
Description: as §1

[5] = system: participants; assay: Diastolic blood pressure, crossover vs caffeine; format: in vivo, human
Experimental: All supplements were orally ingested with 8 fluid ounces of cold tap water. Resting Heart Rate, Systolic and Diastolic Blood Pressure was measured at baseline, 30, 60, 90, 120 and 180 minutes after ingestion.

[6] = system: participants; assay: Anxiety by Visual Analog Scale; format: in vivo, human
Experimental: All supplements were orally ingested with 8 fluid ounces of cold tap water. Anxiety was measured by Visual Analog Scale (VAS) at baseline, 30, 60, 90, 120 and 180 minutes after ingestion.

[7] = Person one, time 0, 200 mg oral
[8] = Person two, time 0, 200 mg oral

Structure (SMILES): Cn1c(=O)[nH]c(=O)c2[nH]cnc21 [3-methylxanthine]
- serum urea ([1]; 100 mg kg^−1, after 16 days): Elevated values of serum urea were found
- Tubular necrosis ([1]; 100 mg kg^−1 per day oral, after 16 days): Tubular necrosis was noticed
- serum urea ([1]; 200 mg kg^−1, after 1 day): Elevated values of serum urea were found
- serum creatinine ([1]; 200 mg kg^−1, after 8 days): Elevated values of serum creatinine were detected
- Tubular necrosis ([1]; 200 mg kg^−1 per day oral, after 8 days): Tubular necrosis was noticed
- overall renal outcome ([1]; 50-200 mg per kg per day, 1-16 days): dose- and time-related renal failure

Structure (SMILES): Cn1c(=O)c2c(ncn2C)n(C)c1=O [caffeine, reference compound]
- Respiratory Quotient MEAN (30-180) ([2]; Average): 0.701
- Respiratory Quotient MEAN (30-180) ([2]; Person one): 0.704
- Respiratory Quotient ([2]; Person one, 30 min after ingestion): 0.70
- Respiratory Quotient ([2]; Person one, 60 min): 0.65
- Respiratory Quotient ([2]; Person one, 90 min): 0.70
- Respiratory Quotient ([2]; Person one, 120 min): 0.74
- Respiratory Quotient ([2]; Person one, 180 min): 0.73
- Respiratory Quotient [2, 7]: 0.68
- Respiratory Quotient MEAN (30-180) ([2]; Person two): 0.698
- Respiratory Quotient ([2]; Person two, 30 min): 0.70
- Respiratory Quotient ([2]; Person two, 60 min): 0.71
- Respiratory Quotient ([2]; Person two, 90 min): 0.71
- Respiratory Quotient ([2]; Person two, 120 min): 0.71
- Respiratory Quotient ([2]; Person two, 180 min): 0.66
- Respiratory Quotient [2, 8]: 0.76
- Resting Heart Rate Mean Δ from 0 ([3]; Average, listed as CA): 10%
- Resting Heart Rate Mean Δ from 0 ([3]; Person one): +6.2 bpm
- Resting Heart Rate ([3]; Person one, 30 min): 64 bpm
- Resting Heart Rate ([3]; Person one, 60 min): 56 bpm
- Resting Heart Rate ([3]; Person one, 90 min): 51 bpm
- Resting Heart Rate ([3]; Person one, 120 min): 61 bpm
- Resting Heart Rate ([3]; Person one, 180 min): 44 bpm
- Resting Heart Rate [3, 7]: 49 bpm
- Resting Heart Rate Mean Δ from 0 ([3]; Person two): +4.6 bpm
- Resting Heart Rate ([3]; Person two, 30 min): 65 bpm
- Resting Heart Rate ([3]; Person two, 60 min): 62 bpm
- Resting Heart Rate ([3]; Person two, 90 min): 62 bpm
- Resting Heart Rate ([3]; Person two, 120 min): 64 bpm
- Resting Heart Rate ([3]; Person two, 180 min): 69 bpm
- Resting Heart Rate [3, 8]: 59 bpm
- Systolic Blood Pressure MEAN (30-180) ([4]; Person one): 130.0 mm Hg
- Systolic Blood Pressure MEAN (30-180) ([4]; Person two): 119.6 mm Hg
- Diastolic Blood Pressure MEAN (30-180) ([5]; Average): 80.2 mm Hg
- Diastolic Blood Pressure Mean Δ from 0 ([5]; Average, listed as CA): 20.3%
- Diastolic Blood Pressure MEAN (30-180) ([5]; Person one): 78.6 mm Hg
- Diastolic Blood Pressure Mean Δ from 0 ([5]; Person one): +18.6 mm Hg
- Diastolic Blood Pressure ([5]; Person one, 30 min): 77 mm Hg
- Diastolic Blood Pressure ([5]; Person one, 60 min): 80 mm Hg
- Diastolic Blood Pressure ([5]; Person one, 90 min): 83 mm Hg
- Diastolic Blood Pressure ([5]; Person one, 120 min): 77 mm Hg
- Diastolic Blood Pressure ([5]; Person one, 180 min): 76 mm Hg
- Diastolic Blood Pressure [5, 7]: 60 mm Hg
- Diastolic Blood Pressure MEAN (30-180) ([5]; Person two): 81.8 mm Hg
- Diastolic Blood Pressure Mean Δ from 0 ([5]; Person two): +8.8 mm Hg
- Diastolic Blood Pressure ([5]; Person two, 30 min): 77 mm Hg
- Diastolic Blood Pressure ([5]; Person two, 60 min): 96 mm Hg
- Diastolic Blood Pressure ([5]; Person two, 90 min): 84 mm Hg
- Diastolic Blood Pressure ([5]; Person two, 120 min): 75 mm Hg
- Diastolic Blood Pressure ([5]; Person two, 180 min): 77 mm Hg
- Diastolic Blood Pressure [5, 8]: 73 mm Hg
- Anxiety (VAS) MEAN (30-180) ([6]; Average): 74.4
- Anxiety (VAS) Mean Δ from 0 ([6]; Average, listed as CA): 65%
- Anxiety (VAS) MEAN (30-180) ([6]; Person one): 74.6
- Anxiety (VAS) Mean Δ from 0 ([6]; Person one): +44.6
- Anxiety (Visual Analog Scale) ([6]; Person one, 30 min): 61
- Anxiety (Visual Analog Scale) ([6]; Person one, 60 min): 80
- Anxiety (Visual Analog Scale) ([6]; Person one, 90 min): 80
- Anxiety (Visual Analog Scale) ([6]; Person one, 120 min): 71
- Anxiety (Visual Analog Scale) ([6]; Person one, 180 min): 81
- Anxiety (Visual Analog Scale) [6, 7]: 30
- Anxiety (VAS) MEAN (30-180) ([6]; Person two): 74.2
- Anxiety (VAS) Mean Δ from 0 ([6]; Person two): +14.2
- Anxiety (Visual Analog Scale) ([6]; Person two, 30 min): 70
- Anxiety (Visual Analog Scale) ([6]; Person two, 60 min): 75
- Anxiety (Visual Analog Scale) ([6]; Person two, 90 min): 76
- Anxiety (Visual Analog Scale) ([6]; Person two, 120 min): 75
- Anxiety (Visual Analog Scale) ([6]; Person two, 180 min): 75
- Anxiety (Visual Analog Scale) [6, 8]: 60
